# Reference: ChEMBL document CHEMBL1201862, “PubChem BioAssay data set” (2004)
#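 96-well plates; 48 h exposure; 5 concentrations. Endpoints by linear interpolation between flanking doses. Not reached: highest tested concentration assigned. Abbreviation: GI50, concentration required for 50% inhibition of growth.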 Active and inactive are the calls of the source. Cut-off read from the data, not from the text of the source: active = GI50 up to about 1.1 µM and inactive = higher. Square brackets hold non-standard residues; d marks the D form. Peptide text beside a SMILES is read from it. * marks the point of attachment. Phe(4-NO2) = N[CH](Cc1ccc([N+](=O)[O-])cc1)C(=O)O; Cbz = O=C(OCc1ccccc1)*
# What was measured:
# Assay in all cases: inhibition of tumour cell growth, NCI panel, 48 h
# NCI-H460 = test system: NCI-H460
# HT-29 = test system: HT-29
# SK-MEL-2 = test system: SK-MEL-2
# K562 = test system: K562
# OVCAR-5 = test system: OVCAR-5
# CCRF-CEM = test system: CCRF-CEM
# Hs-578T = test system: Hs-578T
# COLO 205 = test system: COLO 205
# SR = test system: SR
# SF-268 = test system: SF-268
# MDA-MB-231 = test system: MDA-MB-231
# MCF7 = test system: MCF7
# SNB-75 = test system: SNB-75
# RXF 393 = test system: RXF 393
# KM12 = test system: KM12
# T47D = test system: T47D
# M14 = test system: M14
# NCI-H522 = test system: NCI-H522
# TK-10 = test system: TK-10
# RPMI-8226 = test system: RPMI-8226
# HCT-15 = test system: HCT-15
# NCI-H23 = test system: NCI-H23
# SF-539 = test system: SF-539
# SNB-19 = test system: SNB-19
# EKVX = test system: EKVX
# MDA-MB-435 = test system: MDA-MB-435
# Malme-3M = test system: Malme-3M
# 786-0 = test system: 786-0
# NCI/ADR-RES = test system: NCI/ADR-RES
# HL-60 = test system: HL-60
# SK-MEL-28 = test system: SK-MEL-28
# UO-31 = test system: UO-31
# SK-MEL-5 = test system: SK-MEL-5
# MDA-N = test system: MDA-N
# SW-620 = test system: SW-620
# SN12C = test system: SN12C
# IGROV-1 = test system: IGROV-1
# ACHN = test system: ACHN
# PC-3 = test system: PC-3
# OVCAR-3 = test system: OVCAR-3
# UACC-62 = test system: UACC-62
# LOX IMVI = test system: LOX IMVI
# A549 = test system: A549
# MOLT-4 = test system: MOLT-4
# DU-145 = test system: DU-145
# BT-549 = test system: BT-549
# U-251 = test system: U-251
# OVCAR-4 = test system: OVCAR-4
# NCI-H226 = test system: NCI-H226
# HOP-62 = test system: HOP-62
# A498 = test system: A498
# SK-OV-3 = test system: SK-OV-3
# HCC 2998 = test system: HCC 2998
# SF-295 = test system: SF-295
# HOP-92 = test system: HOP-92
# OVCAR-8 = test system: OVCAR-8
# CAKI-1 = test system: CAKI-1
# UACC-257 = test system: UACC-257
compound,measurement,setting,value
CCOC(=O)CCC(NC(=O)OCc1ccccc1)C(=O)NC(CCC(=O)OCC)C(=O)NC(CCC(=O)OCC)C(=O)NC(CCC(=O)OCC)C(=O)NC(CCC(=O)OCC)C(=O)NC(Cc1ccc([N+](=O)[O-])cc1)C(=O)NC(CCC(=O)OCC)C(=O)NC(CCC(=O)OCC)C(=O)NC(CCC(=O)OCC)C(=O)NC(CCC(=O)OCC)C(=O)NC(CCC(=O)OCC)C(=O)OCC (stereo not given) (Cbz-E(OEt)E(OEt)E(OEt)E(OEt)E(OEt)[Phe(4-NO2)]E(OEt)E(OEt)E(OEt)E(OEt)E(OEt)-OEt; configuration not given here),GI50,NCI-H460,> 50 µM (inactive)
same,GI50,HT-29,> 50 µM (inactive)
same,GI50,SK-MEL-2,> 50 µM (inactive)
same,GI50,K562,> 50 µM (inactive)
same,GI50,OVCAR-5,> 50 µM (inactive)
same,GI50,CCRF-CEM,> 50 µM (inactive)
same,GI50,Hs-578T,> 50 µM (inactive)
same,GI50,COLO 205,> 50 µM (inactive)
same,GI50,SR,> 50 µM (inactive)
same,GI50,SF-268,> 50 µM (inactive)
same,GI50,MDA-MB-231,> 5 µM (inactive)
same,GI50,MCF7,> 50 µM (inactive)
same,GI50,SNB-75,> 50 µM (inactive)
same,GI50,RXF 393,> 50 µM (inactive)
same,GI50,KM12,> 50 µM (inactive)
same,GI50,T47D,> 50 µM (inactive)
same,GI50,M14,16.8 µM (inactive)
same,GI50,NCI-H522,> 50 µM (inactive)
same,GI50,TK-10,> 50 µM (inactive)
same,GI50,RPMI-8226,> 50 µM (inactive)
same,GI50,HCT-15,> 50 µM
same,GI50,NCI-H23,> 50 µM (inactive)
same,GI50,SF-539,> 50 µM (inactive)
same,GI50,SNB-19,> 50 µM (inactive)
same,GI50,EKVX,> 50 µM (inactive)
same,GI50,MDA-MB-435,> 50 µM (inactive)
same,GI50,Malme-3M,> 50 µM (inactive)
same,GI50,786-0,> 50 µM (inactive)
same,GI50,NCI/ADR-RES,> 50 µM (inactive)
same,GI50,HL-60,> 50 µM (inactive)
same,GI50,SK-MEL-28,> 50 µM (inactive)
same,GI50,UO-31,> 50 µM (inactive)
same,GI50,SK-MEL-5,> 50 µM (inactive)
same,GI50,MDA-N,> 50 µM (inactive)
same,GI50,SW-620,> 50 µM (inactive)
same,GI50,SN12C,> 50 µM (inactive)
same,GI50,IGROV-1,> 50 µM (inactive)
same,GI50,ACHN,> 50 µM (inactive)
same,GI50,PC-3,> 50 µM (inactive)
same,GI50,OVCAR-3,> 50 µM (inactive)
same,GI50,UACC-62,> 50 µM (inactive)
same,GI50,LOX IMVI,> 50 µM (inactive)
same,GI50,A549,> 50 µM (inactive)
same,GI50,MOLT-4,> 50 µM (inactive)
same,GI50,DU-145,> 50 µM (inactive)
same,GI50,BT-549,> 50 µM (inactive)
same,GI50,U-251,> 50 µM (inactive)
same,GI50,OVCAR-4,23 µM (inactive)
same,GI50,NCI-H226,> 50 µM (inactive)
same,GI50,HOP-62,> 50 µM (inactive)
same,GI50,A498,> 50 µM (inactive)
same,GI50,SK-OV-3,> 50 µM (inactive)
same,GI50,HCC 2998,> 50 µM (inactive)
COC1OC2COC(c3ccccc3)OC2C(OC(=S)c2ccccc2)C1O (stereo not given),GI50,NCI-H460,65.9 µM (inactive)
same,GI50,HT-29,> 100 µM (inactive)
same,GI50,SK-MEL-2,51.1 µM (inactive)
same,GI50,SF-295,28.8 µM (inactive)
same,GI50,K562,> 100 µM (inactive)
same,GI50,OVCAR-5,> 100 µM (inactive)
same,GI50,HOP-92,> 100 µM (inactive)
same,GI50,CCRF-CEM,14.3 µM (inactive)
same,GI50,Hs-578T,27.2 µM (inactive)
same,GI50,COLO 205,> 100 µM (inactive)
same,GI50,SR,> 100 µM (inactive)
same,GI50,OVCAR-8,16.9 µM (inactive)
same,GI50,SF-268,27 µM (inactive)
same,GI50,MDA-MB-231,14.7 µM (inactive)
same,GI50,MCF7,> 100 µM (inactive)
same,GI50,RXF 393,12 µM (inactive)
same,GI50,T47D,1.91 µM (inactive)
same,GI50,M14,> 100 µM (inactive)
same,GI50,TK-10,28.2 µM (inactive)
same,GI50,RPMI-8226,13.9 µM (inactive)
same,GI50,HCT-15,> 100 µM
same,GI50,NCI-H23,82.4 µM (inactive)
same,GI50,SF-539,13.2 µM (inactive)
same,GI50,SNB-19,> 100 µM (inactive)
same,GI50,EKVX,0.358 µM (active)
same,GI50,MDA-MB-435,10.9 µM (inactive)
same,GI50,Malme-3M,4.45 µM (inactive)
same,GI50,NCI/ADR-RES,15.5 µM (inactive)
same,GI50,SK-MEL-28,0.662 µM (active)
same,GI50,UO-31,> 100 µM (inactive)
same,GI50,SK-MEL-5,> 100 µM (inactive)
same,GI50,MDA-N,> 100 µM (inactive)
same,GI50,SW-620,> 100 µM (inactive)
same,GI50,SN12C,46.3 µM (inactive)
same,GI50,IGROV-1,> 100 µM (inactive)
same,GI50,ACHN,75.5 µM (inactive)
same,GI50,PC-3,4.61 µM (inactive)
same,GI50,CAKI-1,41 µM (inactive)
same,GI50,OVCAR-3,> 100 µM (inactive)
same,GI50,UACC-62,> 100 µM (inactive)
same,GI50,LOX IMVI,7.76 µM (inactive)
same,GI50,A549,13.4 µM (inactive)
same,GI50,MOLT-4,> 100 µM (inactive)
same,GI50,DU-145,> 100 µM (inactive)
same,GI50,BT-549,> 100 µM (inactive)
same,GI50,U-251,11.5 µM (inactive)
same,GI50,OVCAR-4,> 100 µM (inactive)
same,GI50,NCI-H226,25.1 µM (inactive)
same,GI50,HOP-62,12 µM (inactive)
same,GI50,A498,> 100 µM (inactive)
same,GI50,UACC-257,> 100 µM (inactive)
same,GI50,SK-OV-3,19.2 µM (inactive)
